In one test the test system is L1210 cells. The test is described as follows: In vitro Growth Inhibitory Activity Determination (L1210, MTT). The class given is cell-based. Conditions: 3 days at 37° C., read-out: ID50 (L1210). As for the experimental part: L1210 cells were maintained in RPM-1640 a medium supplemented with 10% heat inactivated fetal bovine serum and […] mercaptomethanol/liter medium (RPMI-L). B16 cells were maintained in RPMI-1640 medium supplemented with 15% heat inactivated fetal bovine serum and antibiotics (RPMI-C).
Exponential growing L1210 cells (1×10^3 cells) or B16 cells (2-3×10^3 cells) in 0.1 mL medium were seeded on day 0 in a 96-well microtiter plate. On day 1, 0.1 mL aliquot of medium containing graded concentration of test analogs was added to the initial volume. After incubation at 37° C. in a humidified incubator for 3 days, the plates were centrifuged briefly and […] of the growth medium was removed. Cell cultures were incubated with […] of 3-(4,5-dimethylthiazol-2-yl)-2,5-diphenyltetrazolium bromide (MTT; 1 mg/ml in Dulbecco's phosphate buffer saline) for 4 hr. at 37° C. The resulting purple formazan precipitate was solubilized with […] of 0.04 N HCl in isopropyl alcohol. Absorbance was read in a Titertek Multiskan MCC scanning well spectrophotometer (Flow Laboratories) at a test wavelength of 570 nm and a reference wavelength of 630 nm.
The absorbances were stored on a floppy disk on a IBM-XT and uploaded on to a VAX computer. The ID50 values were determined by a computer program that fit all of the data (8 determinations per concentration and 12 concentrations per test analog) to the following equation:
Y=((Am-Ao)/(1+(X/ID50)n))+Ao
Am=absorbance of the control cells
Ao=absorbance of the cells in the presence of highest drug conc.
ID50 =dose of drug that inhibits the growth of cells to one half that of the control cells

Another test deals with B16F10 melanoma. The experiment in a line: Tumor Cell Clearance Test B16F10 Melanoma. Conditions: for CPM/Lung (Mean + SEM): labelled B16F10 cells i.v. 24 h later, lungs counted 18 h later; for CPM/Lung (Mean + SEM) / Treated/Control: N=6; for Treated/Control: T/C <0.40 considered positive. The class given is in vivo, mouse. The text has this: One common route of cancer spread is through the blood. Very few cancer cells survive this hostile environment to go on and form metastases; NK cells and macrophages are believed to play an important role in controlling this hematogenous spread (Hanna, N. Cancer Research, 42:1337, 1982). Following the injection of various immunomodulators, macrophages and NK cells can be removed and shown to kill tumor cells in tissue culture. […] In the tumor cell clearance assay detailed below, radiolabelled tumor cells are injected intravenously (i.v.) into mice injected with an immunomodulator one day earlier. A decreased number of tumor cells, as reflected by a decreased amount of radioactivity remaining in the lungs, is used as an endpoint.
The B16 tumor line established from melanoma tumor which arose spontaneously on the skin at the base of the ear in a C57BL mouse. The B16F10 tumor subline was derived from the parent B16 line by selection for its ability to form lung tumors […] after i.v. injection and was subsequently established in vitro after 10 cycles of lung metastasis formation (Fidler, Eur. J. Cancer 9:223, 1973). The B16F10 tumor line is maintained by serial passage in vitro.
On day 0 female mice are injected intraperitoneally (i.p.) with test compound (6 mice/group) or vehicle alone (10 mice/group). Twenty-four hours later all mice are injected intravenously with 100,000 [^125 I] Iododeoxyuridine labelled B16F10 melanoma cells in 0.2 mL. Eighteen hours later mice are sacrificed and lungs removed and counted on a gamma counter.
Control and experimental group mean values are compared to the vehicle control using a Student's t-test. Poly I:C is an immunostimulant which activates macrophages and NK cells to kill and clear tumor cells faster and thus results in fewer cpm/lung. Statistical significance is set at p<0.05, and compounds with treated/control (T/C) values of <0.40 are considered positive.

This is an account of results in patent US5086059A, “Bis-naphthalimides as anticancer agents” (Du Pont Merck Pharmaceutical Company, priority 1990, dated 1992).

Counter-ions that a name gives are not always drawn. Like-named read-outs stand apart in the source and are kept apart here.

In the case of `O=C1c2ccc3c4c(ccc(c24)C(=O)N1CCCNCCCCNCCCN1C(=O)c2ccc4c5c(ccc(c25)C1=O)CC4)CC3` [Example 1, 1,4-Bis-[3-(1,3,6,7-tetrahydro-1,3-dioxo-2H-indeno[6,7,1-def]isoquinoline-2-yl)propyl)-amino]butane dihydromethanesulfonate], the IC50 in the test on L1210 cells (Mus musculus, L1210, 72 h) came to 3010 nM.
Take `O=C1c2ccc3c4c(ccc(c24)C(=O)N1CCCNCCCCNCCCN1C(=O)c2ccc4c5c(ccc(c25)C1=O)CC4)CC3` [Example 2, 1.4-Bis-[3 3.6 7-tetrahydro-1.3-dioxo-2H-indeno[6,7,1-def]isoquinoline-2-yl)propyl-amino]butane dihydrochloride]: the IC50 with L1210 cells (dihydrochloride, 4320 min) was 1720 nM.
Take `CCN(CCCCN(CC)CCCN1C(=O)c2ccc3c4c(ccc(c24)C1=O)CC3)CCCN1C(=O)c2ccc3c4c(ccc(c24)C1=O)CC3` [Example 3, 1,4-Bis-3-(1,3,6,7-tetrahydro-1,3-dioxo-2H-indeno6,7,1-def]isoquinoline-2-yl)-N-ethyl-propylamino]butane dihydrochloride]: the “CPM/Lung (Mean + SEM)” value with B16F10 melanoma (6.25 mg/kg i.p. on day 0) is listed as 27953 + 2567 CPM/Lung; in the test with B16F10 melanoma (12.5 mg/kg i.p. on day 0) it was 24905 + 2497 CPM/Lung; with B16F10 melanoma (25 mg/kg i.p. on day 0), 6992 + 1417 CPM/Lung; with B16F10 melanoma (50 mg/kg i.p. on day 0), 3558 + 476 CPM/Lung. The Treated/Control with B16F10 melanoma (6.25 mg/kg i.p.) was found to be 0.90; with B16F10 melanoma (12.5 mg/kg i.p.), 0.80; in the test on B16F10 melanoma (25 mg/kg i.p., *p < 0.001 compared to vehicle control), 0.23; in the test on B16F10 melanoma (50 mg/kg i.p., *p < 0.001 compared to vehicle control), 0.11. For the same molecule, the “activating nonspecific immune cells against tumor cells” value with B16F10 melanoma (result in words, mice, B16F10 tumor cell clearance) is “effective in activating nonspecific immune cells against the B16F10 melanoma”. Further, the IC50 in the test with L1210 cells (Mus musculus, L1210, 72 h) was determined as 22 nM.
With `O=C1c2ccc3c4c(ccc(c24)C(=O)N1CCCCNCCCN1C(=O)c2ccc4c5c(ccc(c25)C1=O)CC4)CC3` [Example 4, 4-3-(1,3,6,7-Tetrahydro-1,3-dioxo-2H-indeno6,7,1-def]isoquinoline-2-yl)propyl-amino1-1-(1,3,6,7-tetrahydro-1,3-dioxo-2H-indeno-6,7,1-def]isoquinoline-2-yl)butane methanesulfonate], the IC50 in the test on L1210 cells (Mus musculus, L1210, 72 h) is 290 nM.
Turning to Poly I:C [reference compound], the “CPM/Lung (Mean + SEM)” value with B16F10 melanoma (5 mg/kg i.p. on day 0) was 1044 + 87 CPM/Lung. Besides, in the test on B16F10 melanoma (5 mg/kg i.p., *p < 0.001 compared to vehicle control), the Treated/Control was found to be 0.03.
